In patent US6713512B1, “Uses of kombic acid as an anticancer and cholesterol-lowering agent” (priority 2001, dated 2004):
Values after ≈ are worked out from the molar mass of the structure shown. Values joined by “and” are separate entries in the source; they are usually repeats but may differ in a detail not shown here. Equal entries are not always repeated. Where two headings read alike, the source gives them in different places.

Key:
[1] = tested on: Human low density lipoprotein; assay: Copper-induced lipid peroxidation of human low density lipoprotein (MDA/thiobarbituric acid); format: biochemical; details: for IC50: 10 μM copper; for antioxidant activity compared with natural vitamin E: result in words
Description: Human low density lipoprotein was dialyzed, incubated with or without inhibitor, and then treated with 10 μM copper to induce lipid peroxidation for several hours. The extent of lipid peroxidation was determined by the amount of malondialdehyde produced, which was determined by reaction with thiobarbituric acid as described above.

[2] = tested on: Rat liver microsomes lipid peroxidation; assay: Lipid peroxidation in rat liver microsomes induced by ascorbic acid and ferrous sulfate (MDA/thiobarbituric acid); format: biochemical; details: for IC50: concentration required to inhibit lipid peroxidation by 50%, obtained by plotting
Description: Rat liver microsomes, previously incubated with or without inhibitor, were treated with ascorbic acid and ferrous sulfate to induce lipid peroxidation. The extent of lipid peroxidation was determined by the amount of malondialdehyde produced, which was determined by reaction with thiobarbituric acid.
Biological specimens contain a mixture of thiobarbituric acid reactive substances (TBARS), including lipid hydroperoxides and aldehydes, which increase as a result of oxidative stress. TBARS return to normal levels over time, depending upon the presence of antioxidants. In practice, TBARS are expressed in terms of malondialdehyde (MDA) equivalents. In this assay, an MDA standard is used to construct a standard curve against which unknown samples can be plotted. The presence of this compound is measured by fluorometry or spectrophotometry.

[3] = Oxygen Stability Index of edible oil; format: physicochemical; details: for antioxidant effectiveness in edible oil: result in words; for Hours to end-point: 110° C.
Description: The Oxygen Stability Index is used to measure the effectiveness of antioxidants in the stabilization of edible oils against oxidative degradation. The “Hours to end-point” indicate when a time/conductivity curve changes shape, with a sharp slope upturn at that time point. The temperature of the test, which measures conductivity of a solution into which oxidation products from the oil being tested is passed, is 110° C.

[4] = tested on: Ehrlich carcinoma, sarcoma 180, implanted murine carcinoma (IMC) tumors, Meth-A fibrosarcoma; assay: Survival of mice bearing tumor cells; format: in vivo; details: injected intraperitoneally
Description: Such mice bearing tumor cells include, but are not limited to Ehrlich carcinoma, sarcoma 180, or implanted murine carcinoma (IMC) tumors, Meth-A fibrosarcoma or other tumors.

[5] = tested on: MDA-MB-435 estrogen receptor-negative human breast cancer cells; assay: [3H] thymidine incorporation, estrogen receptor-negative cells; format: cell-based
Description: Human cancer cells, such as, but not limited to, MDA-MB-435 estrogen receptor-negative human breast cancer cells are incubated in the presence of varying concentrations of kombic acid or its derivatives. The incorporation of [^3H] thymidine into the DNA of the cells is measured.

[6] = tested on: MCF-7 estrogen receptor-positive human breast cancer cells; assay: Proliferation of estrogen receptor-positive cells; format: cell-based; details: alone
Description: Human breast cancer cells are incubated in the presence and absence of kombic acid and its derivatives individually. The IC50 (the concentration of Kombic Acid or its derivatives required to inhibit cell proliferation by 50%) is then determined.

MCF-7 cells = assay: Effect of excess estrogen on inhibition in steroid-depleted cells; format: cell-based, human; details: presence of estradiol
Description: The effect of Kombic Acid and its derivatives on the estrogen receptor is investigated. Human cancer cells in culture, such as, but not limited to, MCF-7 cells are depleted of steroids and treated with Kombic Acid, its derivatives, tocotrienols, or tamoxifen (used as a positive control) in the presence or absence of estradiol.

PKC = assay: Protein kinase C activity; format: biochemical
[7] = tested on: PAP2 (ras-transformed NIH 3T3 mouse fibroblasts) cells; assay: Proliferation of PAP2 cells; format: cell-based
[8] = Cholesterol lowering in animal models; format: in vivo
Description: (§1) Hypercholesterolemia associated with elevated LDL (low-density lipoprotein) cholesterol is a risk factor for CHD (coronary heart disease). LDL-cholesterol combined with oxidative stress can contribute to the formation and development of atherosclerotic plaques. To lower the risk of CHD, antioxidants such as Kombic Acid and its derivatives counteract LDL oxidation.

[9] = Plasma cholesterol and apoB in humans; format: in vivo
Description: as §1

HepG2 cells = assay: Medium apoB of LDL-like lipoprotein secreting cells (ELISA); format: cell-based; details: nontoxic concentrations, serum-free medium
Description: The apoB-lowering potential of Kombic Acid and its derivatives is evaluated in cells that secrete and catabolize lipoproteins similar to LDL, for example, but not limited to HepG2 cells. Confluent cells are preincubated in serum-free medium, which inhibits cell proliferation and stimulates biosynthesis of LDL-like lipoproteins. They are subsequently incubated in the same medium in the presence or absence of Kombic Acid or its derivatives at the range of nontoxic concentrations. For each compound, the highest nontoxic concentration is predetermined by a viability assay, such as but not limited to the 3-(4,5-dimethylthiazol-2-yl)-2,5-diphenyltetrazolium bromide (MTT) viability assay. At the end of the incubation, changes in medium concentration of apoB B are evaluated by ELISA and compared with changes induced in the absence of kombic acid or its derivatives.

[10] = read-out: IC50: mean +/− Standard Deviation
[11] = individual determinations, read-out: IC50: data
[12] = inhibitor concentration 0.156 μg/mL
[13] = inhibitor concentration 0.313 μg/mL
[14] = inhibitor concentration 0.625 μg/mL
[15] = inhibitor concentration 0.625 μg/mL, peroxidation (nmoles MDA) with inhibitor divided by without

IC50 [1, 10] [µM]	IC50 [1, 11]	IC50 [2] [mg/L]	Compound	% Inhibition [2, 12] [%]	Remaining lipid peroxidation (fraction of control) [2, 12]	% Inhibition [2, 13] [%]	Remaining lipid peroxidation (fraction of control) [2, 13]	% Inhibition [2, 14] [%]	Remaining lipid peroxidation (fraction of control) [2, 15]	antioxidant activity compared with natural vitamin E [1]	antioxidant effectiveness in edible oil [3]	reversal of inhibition by excess estrogen (MCF-7 cells)	further results
4.6	5.1 µM (2×) and 3.5 µM		Cc1c(C)c2c(c(C)c1O)CC[C@@](C)(CCC[C@H](C)CCC[C@H](C)CCCC(C)C)O2 [d-α-tocopherol, reference compound]										
5.2	7.8 µM and 2.1 µM and 2.2 µM and 8.5 µM and 5.2 µM	0.20 (≈ 0.469 µM)	CC(=CCCC(C)=CCc1cc(O)cc(C)c1O)CCC=C(C)CCC=C(C)C(=O)O [Kombic Acid, 16(2′,5′-dihydroxy-3′-methylphenyl)-2,6,10,14-tetramethyl-2,6,10,14-hexadecatetraenoic acid]	36	0.64	89	0.11	90	0.10	no significant difference in antioxidant activity	effective antioxidants	does not reverse the inhibition	antioxidant activity ([2]; result in words): very strong antioxidant activity; Hours to end-point ([3]; soybean oil + 40 ppm): 8.35 h and 8.85 h; Hours to end-point ([3]; soybean oil + 300 ppm): 15.55 h and 15.40 h; life of mice bearing tumor cells [4]: prolong the life of mice bearing tumor cells; proliferation ([3H] thymidine incorporation) ([5]; alone): inhibit the proliferation of these cells; interaction with tamoxifen ([5]; with tamoxifen): can act synergistically with tamoxifen; cell proliferation [6]: can inhibit the proliferation; PKC activity (PKC): inhibitors of PKC activity; cell proliferation [7]: inhibit the proliferation of these cells; cholesterol-lowering effects [8]: produce cholesterol-lowering effects in animal models; plasma total and LDL cholesterol and apoB [9]: effective in reducing elevated plasma levels of total and LDL cholesterol as well as plasma apolipoprotein B (apoB) concentrations; medium apoB (HepG2 cells): dose-dependent reduction of medium apoB B
			tocotrienols									does not reverse the inhibition	
			CC(C)(C)c1cc(O)ccc1O [TBHQ, tributyl-tert-hydroquinone, reference compound]								effective antioxidants		Hours to end-point ([3]; soybean oil + 200 ppm): 21.10 h and 19.85 h
			CC/C(=C(\c1ccccc1)c1ccc(OCCN(C)C)cc1)c1ccccc1 [tamoxifen]									does reverse the inhibition	
		0.31 (≈ 0.72 µM)	Cc1c(C)c2c(c(C)c1O)CCC(C)(CCCC(C)CCCC(C)CCCC(C)C)O2 (racemic) [dl-α-tocopherol, reference compound]	8	0.92	50	0.50	66	0.34	inhibit peroxidation equally as well as natural (d) vitamin E			
